Reference: the NIST ThermoML archive (doi:10.1016/j.jct.2016.10.047)
± gives the expanded uncertainty stated by the source.

Assay: refractive index (other wavelength) (dimensionless); xn = mol fraction of the nth substance listed
Details: 94 kPa, Liquid, Wavelength=632.8 nm, minimum deviation method

CCCCCCCC[n+]1ccn(C)c1.F[P-](F)(F)(F)(F)F [1-octyl-3-methylimidazolium hexafluorophosphate] + CC(C)O
Details | refractive index
298.19 K, x1 = 1 | 1.4215 ± 0.0003
300.2 K, x1 = 1 | 1.421 ± 0.0003
302.19 K, x1 = 1 | 1.4204 ± 0.0003
304.2 K, x1 = 1 | 1.4199 ± 0.0003
306.22 K, x1 = 1 | 1.4193 ± 0.0003
307.22 K, x1 = 0.5 | 1.4091 ± 0.0003
307.22 K, x1 = 0.8 | 1.4159 ± 0.0003
307.28 K, x1 = 0.901 | 1.4177 ± 0.0003
307.29 K, x1 = 0.601 | 1.4119 ± 0.0003
307.3 K, x1 = 0.4 | 1.4056 ± 0.0003
307.3 K, x1 = 0.699 | 1.4141 ± 0.0003
307.41 K, x1 = 0.3 | 1.4009 ± 0.0003
308.19 K, x1 = 0.699 | 1.4138 ± 0.0003
308.21 K, x1 = 0.5 | 1.4088 ± 0.0003
308.21 K, x1 = 0.601 | 1.4116 ± 0.0003
308.23 K, x1 = 0.901 | 1.4174 ± 0.0003
308.24 K, x1 = 1 | 1.4188 ± 0.0003
308.25 K, x1 = 0.8 | 1.4156 ± 0.0003
308.29 K, x1 = 0.4 | 1.4053 ± 0.0003
308.4 K, x1 = 0.3 | 1.4006 ± 0.0003
309.22 K, x1 = 0.5 | 1.4085 ± 0.0003
309.24 K, x1 = 0.601 | 1.4113 ± 0.0003
309.24 K, x1 = 0.8 | 1.4154 ± 0.0003
309.25 K, x1 = 0.901 | 1.4171 ± 0.0003
309.27 K, x1 = 0.699 | 1.4135 ± 0.0003
309.35 K, x1 = 0.4 | 1.405 ± 0.0003
309.39 K, x1 = 0.3 | 1.4003 ± 0.0003
309.47 K, x1 = 0.2 | 1.3938 ± 0.0003
310.24 K, x1 = 0.601 | 1.411 ± 0.0003
310.25 K, x1 = 0.5 | 1.4082 ± 0.0003
310.25 K, x1 = 0.8 | 1.4151 ± 0.0003
310.25 K, x1 = 1 | 1.4183 ± 0.0003
310.31 K, x1 = 0.699 | 1.4132 ± 0.0003
310.34 K, x1 = 0.901 | 1.4168 ± 0.0003
310.36 K, x1 = 0.4 | 1.4047 ± 0.0003
310.42 K, x1 = 0.3 | 1.3999 ± 0.0003
310.45 K, x1 = 0.2 | 1.3934 ± 0.0003
310.49 K, x1 = 0.1 | 1.3838 ± 0.0003
311.23 K, x1 = 0.601 | 1.4107 ± 0.0003
311.24 K, x1 = 0.5 | 1.4079 ± 0.0003
311.25 K, x1 = 0.699 | 1.413 ± 0.0003
311.25 K, x1 = 0.901 | 1.4166 ± 0.0003
311.26 K, x1 = 0.8 | 1.4148 ± 0.0003
311.36 K, x1 = 0.4 | 1.4044 ± 0.0003
311.46 K, x1 = 0.3 | 1.3996 ± 0.0003
311.48 K, x1 = 0.2 | 1.3931 ± 0.0003
311.5 K, x1 = 0.1 | 1.3834 ± 0.0003
312.22 K, x1 = 0.8 | 1.4146 ± 0.0003
312.24 K, x1 = 0.601 | 1.4104 ± 0.0003
312.24 K, x1 = 1 | 1.4178 ± 0.0003
312.25 K, x1 = 0.5 | 1.4076 ± 0.0003
312.26 K, x1 = 0.699 | 1.4127 ± 0.0003
312.35 K, x1 = 0.901 | 1.4163 ± 0.0003
312.37 K, x1 = 0.4 | 1.4041 ± 0.0003
312.4 K, x1 = 0.3 | 1.3993 ± 0.0003
312.47 K, x1 = 0.2 | 1.3927 ± 0.0003
312.49 K, x1 = 0.1 | 1.383 ± 0.0003
313.21 K, x1 = 0.601 | 1.4101 ± 0.0003
313.25 K, x1 = 0.8 | 1.4143 ± 0.0003
313.26 K, x1 = 0.5 | 1.4073 ± 0.0003
313.26 K, x1 = 0.901 | 1.416 ± 0.0003
313.35 K, x1 = 0.4 | 1.4038 ± 0.0003
313.37 K, x1 = 0.699 | 1.4124 ± 0.0003
313.43 K, x1 = 0.3 | 1.399 ± 0.0003
313.49 K, x1 = 0.2 | 1.3924 ± 0.0003
313.52 K, x1 = 0.1 | 1.3826 ± 0.0003
314.23 K, x1 = 0.601 | 1.4098 ± 0.0003
314.23 K, x1 = 0.699 | 1.4121 ± 0.0003
314.27 K, x1 = 0.5 | 1.407 ± 0.0003
314.29 K, x1 = 0.8 | 1.414 ± 0.0003
314.29 K, x1 = 0.901 | 1.4157 ± 0.0003
314.39 K, x1 = 0.4 | 1.4035 ± 0.0003
314.46 K, x1 = 0.3 | 1.3986 ± 0.0003
314.48 K, x1 = 0.2 | 1.392 ± 0.0003
314.54 K, x1 = 0.1 | 1.3822 ± 0.0003
315.58 K, x1 = 0.1 | 1.3818 ± 0.0003
315.58 K, x1 = 0.2 | 1.3916 ± 0.0003
